Results taken from publication PMC8765781, “A platform of assays for the discovery of anti-Zika small-molecules with activity in a 3D-bioprinted outer-blood-retina model” (PLoS ONE, 2022).
Like-named read-outs stand apart in the source and are kept apart here.

Legend:
[1] = system: ZIKV-RLuc (Cambodian strain FSS13025); test: microbe, parasite or virus in culture; assay type: cell-based, Zika virus
[2] = Zika virus, Vero, read-out: Log AC50 (M) (converted)

Compound	AC50 (Vero cells) [µM]	Log AC50 (M) (Vero cells)	CC-v2 (curve class classification v2 of the dose response curve) [1]	Efficacy (difference between neutral response and maximum compound response) [1]	Max Resp (difference between neutral response and compound response for highest compound concentration) [1]	AC50 ([1]; Zika virus, Vero) [M]	AC50 [1, 2] [M]	AC50 [1] [M]	Log AC50 (M) [1]
CC[C@@H]1C(=O)N(C)c2cnc(Nc3ccc(C(=O)NC4CCN(C)CC4)cc3OC)nc2N1C1CCCC1 [NCGC00253438-01]	2.33	-5.6327	-1.1	-120.006	-99.011	2.33e-06	2.33e-06	–	–
O=C(O)C1=CO[C@@H](O[C@@H]2O[C@H](CO)[C@@H](O)[C@H](O)[C@H]2O)[C@@H]2C(CO)=CC[C@H]12 [NCGC00346663-03]	25.6	-4.5925	-3	-105.712	-86.968	2.56e-05	2.56e-05	–	–
CC1(C)CCC(C)(C)c2cc(NC(=O)c3ccc(C(=O)O)cc3)ccc21 [NCGC00181111-01]	36.9	-4.4327	-3	-105.549	-80.478	3.69e-05	3.69e-05	–	–
C[C@@H]1CC[C@@]2(OC1)O[C@H]1C[C@H]3[C@@H]4CC=C5C[C@@H](O[C@@H]6O[C@H](CO)[C@@H](O[C@@H]7O[C@@H](C)[C@H](O)[C@@H](O)[C@H]7O)[C@H](O)[C@H]6O[C@@H]6O[C@@H](C)[C@H](O)[C@@H](O)[C@H]6O)CC[C@]5(C)[C@H]4CC[C@]3(C)[C@H]1[C@@H]2C [NCGC00346600-01]	3.29	-5.4827	-1.1	-96.499	-99.01	3.29e-06	3.29e-06	–	–
CCNC(=O)c1noc(-c2cc(C(C)C)c(O)cc2O)c1-c1ccc(CN2CCOCC2)cc1 [NCGC00247878-08]	36.9	-4.4327	-2.3	-68.402	-90.15	3.69e-05	3.69e-05	–	–
CCN(CC)CCNC(=O)c1c(C)[nH]c(/C=C2\C(=O)Nc3ccc(F)cc32)c1C [NCGC00164631-04]	11.7	–	-2.1	-103.003	-99.557	1.17e-05	1.17e-05	–	–
C[C@@H](Oc1cc(-n2cnc3ccc(CN4CCN(C)CC4)cc32)sc1C(N)=O)c1ccccc1C(F)(F)F [NCGC00263112-01]	6.76	-5.1699	-2.1	-113.144	-99.466	6.76e-06	6.76e-06	–	–
CCOC(=O)N1CCN(/[N+]([O-])=N/Oc2ccc([N+](=O)[O-])cc2C#N)CC1 [NCGC00346969-01]	3.29	-5.4827	-1.1	-94.201	-99.104	3.29e-06	3.29e-06	–	–
Cc1ccc(NC(=O)c2ccc(CN3CC[C@H](N(C)C)C3)c(C(F)(F)F)c2)cc1Nc1ncc(-c2cncnc2)cn1 [NCGC00346514-01]	16.5	-4.7827	-2.1	-111.251	-100.269	1.65e-05	1.65e-05	–	–
O=C(CCCCCCNC(=O)c1cnc(N(c2ccccc2)c2ccccc2)nc1)NO [NCGC00345802-01]	18.5	-4.7327	-2.1	-102.183	-84.021	1.85e-05	1.85e-05	–	–
CC(=O)OC1C=C(CO)C(=O)C(OC(=O)CC(C)C)C1C(C)C (stereo not shown) [NCGC00347760-02]	36.9	-4.4327	-3	-123.001	-99.998	3.69e-05	3.69e-05	–	–
COC(=O)C1(Cc2ccc(O)c(CC=C(C)C)c2)OC(=O)C(OC)=C1c1cc(O)c(O)c(CC=C(C)C)c1 (stereo not shown) [NCGC00347732-02]	9.28	-5.0327	-1.1	-101.002	-99.456	9.28e-06	9.27e-06	–	–
CCCCN(CCCC)CCC(O)c1cc2c(Cl)cc(Cl)cc2c2cc(C(F)(F)F)ccc12 (stereo not shown) [NCGC00179250-04]	29.3	-4.5327	-2.2	-95.793	-79.925	2.93e-05	2.93e-05	–	–
CC(C)=CCCC(C)(O)CCCC(C)(O)CCCC(C)(O)CCCC(C)(O)CCCC(C)(O)CCCC(C)(O)C(O)CC/C(C)=C/CC/C(C)=C/CO[C@@H]1O[C@H](CO)[C@@H](O)[C@H](O)[C@H]1O (stereo partly shown) [NCGC00347748-02]	3.62	-5.4408	-1.1	-100.94	-99.117	3.62e-06	3.62e-06	–	–
CCOC(CN1C(=O)[C@](CC(=O)Nc2ccc(C)cc2)(NC(=O)Nc2ccc(C)cc2)c2ccccc21)OCC [NCGC00263225-01]	23.3	-4.6327	-2.1	-106.258	-97.88	2.33e-05	2.33e-05	–	–
COc1cc(OC2CCN(C)CC2)ccc1Nc1ncc2c(n1)n(C1CCCC1)c(=O)n2C [NCGC00263090-01]	6.76	-5.1699	-1.2	-50.634	-54.42	6.76e-06	6.76e-06	–	–
CC(C)(C)OC(=O)N[C@@H](Cc1ccc(O[S+](=O)([O-])c2cccc3cnccc23)cc1)C(=O)N1CCCN(C(=O)OC(C)(C)C)CC1 [NCGC00348020-01]	36.9	-4.4327	-3	-104.596	-83.301	3.69e-05	3.69e-05	–	–
C/C=C1\NC(=O)[C@H]2CSSCC/C=C\[C@H](CC(=O)N[C@H](C(C)C)C(=O)N2)OC(=O)[C@H](C(C)C)NC1=O [NCGC00263220-05]	0.233	-6.6327	-1.1	-96.055	-99.405	2.33e-07	2.33e-07	–	–
C[C@@H]1O[C@@H](O[C@H]2[C@H](OC(=O)[C@]34CCC(C)(C)C[C@H]3C3=CCC5[C@@]6(C)C[C@H](O)[C@H](O[C@@H]7O[C@H](C(=O)O)[C@@H](O)[C@H](O)[C@H]7O)[C@@](C)(CO)C6[C@H](O)C[C@@]5(C)[C@]3(C)CC4)OC[C@H](O)[C@@H]2O)[C@H](O)[C@H](O)[C@H]1O[C@@H]1OC[C@@H](O)[C@H](O[C@@H]2OC[C@](O)(CO)[C@H]2O)[C@H]1O (stereo partly shown) [NCGC00380219-01]	11.6	-4.9345	-2.1	-96.8	-99.643	1.16e-05	1.16e-05	–	–
CC(C)c1cc(-c2n[nH]c(=O)n2-c2ccc3c(ccn3C)c2)c(O)cc1O [NCGC00346678-01]	8.27	-5.0827	-2.2	-44.79	-44.962	8.27e-06	8.27e-06	–	–
NC1(c2ccc(-c3nc4ccn5c(=O)[nH]nc5c4cc3-c3ccccc3)cc2)CCC1 [NCGC00186465-01]	18.5	-4.7327	-2.1	-117.339	-99.979	1.85e-05	1.85e-05	–	–
CC(C)c1cc(-c2n[nH]c(=O)n2-c2ccc3c(ccn3C)c2)c(O)cc1O [NCGC00346678-04]	9.28	-5.0327	-2.2	-65.758	-62.389	–	–	9.28e-06	-5.0327
CCCCc1oc2ccccc2c1C(=O)c1cc(I)c(OCCN(CC)CC)c(I)c1 [NCGC00015096-17]	18.5	-4.7327	-2.1	-100.133	-98.715	1.85e-05	1.85e-05	–	–
